Measured values from PubChem BioAssay AID651630 (Sanford-Burnham Center for Chemical Genomics, 2012).
Calls of active or inactive are those of the source.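 How the source made its calls: active means lipid-stain IC50 at or below a set limit, with nuclear-stain toxicity IC50 at least five times higher; inactive means the rest.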

Columns and labels:
DAPI = test: triacylglycerol accumulation inhibitor potency, dose response, cell-based, panel, Nile Red and DAPI fluorescence, H9c2 (AID 651630); details: H9c2 cells, DAPI nuclear fluorescence (cytotoxicity counter-readout), oleic acid;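 further: cells exposed to compound overnight before fixation and staining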
TAG = test: as above; details: H9c2 cells, Nile Red TAG fluorescence, oleic acid

Row | SMILES | IC50 cytotoxicity (DAPI nuclear signal decrease) (DAPI; mean of runs) | IC50 cytotoxicity (DAPI nuclear signal decrease) (DAPI; run 1) | IC50 cytotoxicity (DAPI nuclear signal decrease) (DAPI; run 2) | IC50 (TAG; mean of runs) | IC50 (TAG; run 1) | IC50 (TAG; run 2)
1 | COc1ccc(NC(=O)C2(C)Cc3c(-c4cccc(NC(C)=O)c4)ccnc3O2)cn1 (stereo unspecified) | > 25 µM (inactive) | > 25 µM | > 25 µM | > 25 µM (inactive) | > 25 µM | > 25 µM
2 | COc1ccc([C@H]2CC(=O)C=C(c3ccc(OC)cc3OC)C2)cc1 | > 25 µM (inactive) | > 25 µM | > 25 µM | > 25 µM (inactive) | > 25 µM | > 25 µM
3 | COc1cc(NC(=O)c2cc([N+](=O)[O-])ccc2NC(=O)CN2CCN(c3ccccn3)CC2)cc(OC)c1 | > 25 µM (inactive) | > 25 µM | > 25 µM | 12.6 µM | 13.3 µM | 11.9 µM
4 | CCN(CC)c1ccc(/C=C2\CCC(/C=C(/C#N)C(=O)Nc3ccccc3F)=C2N2CCOCC2)cc1 |  | > 25 µM | > 25 µM | < 0.78 µM | < 0.78 µM | < 0.78 µM
5 | O=C(Nc1nc(-c2ccccc2)cs1)C1CCCN(S(=O)(=O)c2cccc([N+](=O)[O-])c2)C1 (stereo unspecified) | > 25 µM (inactive) | > 25 µM | > 25 µM |  | 22.1 µM | > 25 µM
6 | CCC(C)(C)NC(=O)C(c1ccc(OC)cc1)N(Cc1cccs1)C(=O)CCC(=O)Nc1cc(C)on1 (stereo unspecified) | > 25 µM (inactive) | > 25 µM | > 25 µM | 13.3 µM | 13.1 µM | 13.5 µM
7 | COc1cc2c3c(cccc3c1)C(=O)N(CCN1CCCC1)C2=O | > 25 µM (inactive) | > 25 µM | > 25 µM | 7.94 µM | 8.07 µM | 7.8 µM
8 | CN(C)c1ncnc2c1ncn2C1OC(CO)C(O)C1O (stereo unspecified) | 12.8 µM (inactive) | 11 µM | 14.5 µM | > 25 µM (inactive) | > 25 µM | > 25 µM
9 | Cc1ccc(CN(C(=O)c2csnn2)C(C(=O)NC2CCCC2)c2ccc(C)o2)cc1 (stereo unspecified) | > 25 µM (inactive) | > 25 µM | > 25 µM | > 25 µM (inactive) | > 25 µM | > 25 µM
10 | COc1ccc(-c2sc3ccc(N4CCOCC4)cc3c2C#CCCO)cc1 | > 25 µM (inactive) | > 25 µM | > 25 µM | > 25 µM (inactive) | > 25 µM | > 25 µM
11 | CN1N=C(N)c2cn(C3OC(COP(=O)(O)O)C(O)C3O)c3ncnc1c23 (stereo unspecified) | 7.78 µM (inactive) | 6.76 µM | 8.79 µM | 12.2 µM | 11.1 µM | 13.4 µM
12 | CC(C)(C)NC(=O)C[C@H]1C[C@H](C(=O)N2CCCCC2)[C@@]2(CCc3ccccc3)c3[nH]c4ccc(Cl)cc4c3CCN2C1=O | > 25 µM (inactive) | > 25 µM | > 25 µM | 17.7 µM (inactive) | 17.1 µM | 18.2 µM
13 | COc1ccc(CNC(=O)c2ccc(N3CCC4(CC3)CC(c3ccc(Cl)cc3)=NO4)c(NC(=O)Cc3ccc(F)cc3)c2)cc1 | > 25 µM (inactive) | > 25 µM | > 25 µM | > 25 µM (inactive) | > 25 µM | > 25 µM
14 | CC(C)(C)c1cc(NCc2ccccn2)n2ncc(-c3ccc(Cl)cc3)c2n1 | > 25 µM (inactive) | > 25 µM | > 25 µM | > 25 µM (inactive) | > 25 µM | > 25 µM
15 | CCOC(=O)c1c(CN2CCNCC2)nc2ccc(Cl)cc2c1-c1ccccc1 | 16.8 µM (inactive) | 17.1 µM | 16.5 µM | > 25 µM (inactive) | > 25 µM | > 25 µM
16 | Cc1nn(-c2cccc(Cl)c2)c2nc(-c3ccncc3)cc(C(=O)N3CCOCC3)c12 | > 25 µM (inactive) | > 25 µM | > 25 µM | > 25 µM (inactive) | > 25 µM | > 25 µM
17 | CC(C)(C)OC(=O)N(CCc1ccccc1)Cc1ccccc1OCc1cccc(NC(=O)/C=C/c2ccccc2)c1 | > 25 µM (inactive) | > 25 µM | > 25 µM | 15 µM | 21 µM | 8.93 µM
18 | CCCCCCCCn1c(N2CCN(c3cccc(Cl)c3)CC2)nc2c1c(=O)[nH]c(=O)n2C | > 25 µM (inactive) | > 25 µM | > 25 µM | > 25 µM (inactive) | > 25 µM | > 25 µM
19 | Cc1cc(N/N=C\c2ccc(Br)cc2)nc(-n2nc(C)cc2C)n1 | > 25 µM (inactive) | > 25 µM | > 25 µM | > 25 µM (inactive) | > 25 µM | > 25 µM
20 | CCOC(=O)c1sc2nc(CSc3ccccc3)nc(NCCN(C)C)c2c1C | > 25 µM (inactive) | > 25 µM | > 25 µM | 13.7 µM | 12.4 µM | 14.9 µM
21 | O=C(c1ccoc1)N1CCN(c2cc(-c3ccccc3)nc3cc(-c4ccc(Br)cc4)nn23)CC1 | > 25 µM (inactive) | > 25 µM | > 25 µM | 12.1 µM | 12.8 µM | 11.3 µM
22 | Cc1noc(C)c1COc1cccc(C(=O)OCC(=O)N2CC(=O)Nc3ccccc32)c1 | > 25 µM (inactive) | > 25 µM | > 25 µM | 15.4 µM (inactive) | 11.2 µM | 19.7 µM
23 | Nc1c(C(=O)NCc2ccccc2)sc2nc(N3CCOCC3)c3c(c12)CCCC3 | > 25 µM (inactive) | > 25 µM | > 25 µM | > 25 µM (inactive) | > 25 µM | > 25 µM
24 | COC(=O)C1=C(C)N(Cc2ccccc2)C(=NCc2ccccc2)N[C@H]1c1ccccc1 |  | > 25 µM | 18.2 µM | > 25 µM (inactive) | > 25 µM | > 25 µM
